In ChEMBL document CHEMBL1201862, “PubChem BioAssay data set” (2004):
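The compound was tested at five concentrations on cells cultured in 96-well plates, with a 48-hour exposure period. GI50 = concentration required for 50% inhibition of growth.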 Active and inactive are the calls of the source. No stated cut-off is given here; in the data, active = GI50 up to about 1.1 µM and inactive = higher.

Key:
Experiment in all cases: NCI anticancer screen, dose series, 48 h
[1] = tested on: SR
[2] = tested on: COLO 205
[3] = tested on: SN12C
[4] = tested on: UO-31
[5] = tested on: KM12
[6] = tested on: EKVX
[7] = tested on: OVCAR-5
[8] = tested on: NCI/ADR-RES
[9] = tested on: SK-MEL-5
[10] = tested on: Hs-578T
[11] = tested on: NCI-H226
[12] = tested on: ACHN
[13] = tested on: OVCAR-8
[14] = tested on: TK-10
[15] = tested on: MCF7
[16] = tested on: HL-60
[17] = tested on: T47D
[18] = tested on: MDA-N
[19] = tested on: OVCAR-3
[20] = tested on: HOP-62
[21] = tested on: A549
[22] = tested on: BT-549
[23] = tested on: HOP-92
[24] = tested on: SK-OV-3
[25] = tested on: SK-MEL-2
[26] = tested on: HCT-15
[27] = tested on: LOX IMVI
[28] = tested on: NCI-H23
[29] = tested on: IGROV-1
[30] = tested on: UACC-62
[31] = tested on: U-251
[32] = tested on: NCI-H522
[33] = tested on: SNB-75
[34] = tested on: Malme-3M
[35] = tested on: OVCAR-4
[36] = tested on: MDA-MB-435
[37] = tested on: MOLT-4
[38] = tested on: RPMI-8226
[39] = tested on: HCT-116
[40] = tested on: RXF 393
[41] = tested on: UACC-257
[42] = tested on: SF-268
[43] = tested on: MDA-MB-231
[44] = tested on: SK-MEL-28
[45] = tested on: A498
[46] = tested on: DU-145
[47] = tested on: NCI-H460
[48] = tested on: HCC 2998
[49] = tested on: SF-295
[50] = tested on: SF-539
[51] = tested on: CCRF-CEM
[52] = tested on: PC-3
[53] = tested on: SNB-19
[54] = tested on: 786-0
[55] = tested on: SW-620
[56] = tested on: CAKI-1
[57] = tested on: K562
[58] = tested on: M14
[59] = tested on: HT-29

Measured: GI50

CCOC(=O)C1CC(C(=O)c2ccccc2)N2c3ccccc3-c3ccccc3C12 (configuration not stated)
> 100 µM: [26]
inactive: [1] 19.2 µM | [2] 30.2 µM | [3] > 100 µM | [4] 32.7 µM | [5] 48.6 µM | [6] > 100 µM | [7] > 100 µM | [8] 43.2 µM | [9] 45.1 µM | [10] 25.9 µM | [11] > 100 µM | [12] > 100 µM | [13] 33.8 µM | [14] > 100 µM | [15] > 100 µM | [16] 10.7 µM | [17] 23.6 µM | [18] > 100 µM | [19] 30 µM | [20] 97.1 µM | [21] 73.6 µM | [22] 57.3 µM | [23] 52.8 µM | [24] > 100 µM | [25] > 100 µM | [27] 65 µM | [28] > 100 µM | [29] 37.2 µM | [30] 46.7 µM | [31] 30.3 µM | [32] 50.9 µM | [33] 28.1 µM | [34] > 100 µM | [35] 26.4 µM | [36] 86.7 µM | [37] 52 µM | [38] 11.9 µM | [39] 30.8 µM | [40] 29.9 µM | [41] > 100 µM | [42] 74.6 µM | [43] 41.7 µM | [44] > 100 µM | [45] > 100 µM | [46] > 100 µM | [47] > 100 µM | [48] > 100 µM | [49] 82.2 µM | [50] > 100 µM | [51] 28.1 µM | [52] 40.6 µM | [53] > 100 µM | [54] 40.1 µM | [55] > 100 µM | [56] > 100 µM | [57] 31.6 µM | [58] 26.4 µM | [59] 78.2 µM

CC(NC1=CC(=O)c2cccnc2C1=O)C(O)c1ccccc1 (configuration not stated)
active: [9] 1.09 µM | [18] 0.57 µM | [27] 0.942 µM | [28] 1.06 µM | [36] 0.783 µM | [47] 0.733 µM
inactive: [1] 2.86 µM | [2] 1.86 µM | [3] 1.38 µM | [4] 2.15 µM | [5] 3.97 µM | [6] 6.04 µM | [7] 1.79 µM | [8] 3.63 µM | [10] 2.53 µM | [11] 1.96 µM | [12] 2.05 µM | [13] 2.92 µM | [14] 14.8 µM | [15] 1.35 µM | [16] 1.85 µM | [17] 2.87 µM | [19] 1.64 µM | [20] 1.26 µM | [21] 1.9 µM | [22] 1.45 µM | [23] 9.73 µM | [24] 2.92 µM | [25] 1.5 µM | [29] 1.28 µM | [30] 1.65 µM | [31] 2.78 µM | [32] 1.42 µM | [33] 1.35 µM | [34] 1.48 µM | [35] 2.94 µM | [37] 4.12 µM | [38] 2.09 µM | [39] 2.22 µM | [40] 2.71 µM | [41] 1.23 µM | [42] 2.36 µM | [43] 2.52 µM | [44] 1.62 µM | [45] 3.62 µM | [46] 1.6 µM | [48] 3.1 µM | [49] 1.28 µM | [50] 1.84 µM | [51] 4.02 µM | [52] 1.65 µM | [53] 2.08 µM | [54] 2.79 µM | [55] 1.66 µM | [56] 1.32 µM | [57] 2.23 µM | [58] 1.5 µM | [59] 2.86 µM
1.37 µM: [26]

Clc1ccc(C2=Cc3nc2c(-c2ccccc2)c2ccc([nH]2)c(-c2ccccc2)c2nc(c(-c4ccccc4)c4ccc([nH]4)c3-c3ccccc3)C=C2)cc1
> 62.5 µM: [26]
inactive: [1] > 62.5 µM | [2] > 62.5 µM | [3] > 62.5 µM | [4] > 62.5 µM | [5] > 62.5 µM | [6] > 62.5 µM | [7] > 62.5 µM | [8] > 62.5 µM | [9] > 62.5 µM | [10] > 62.5 µM | [11] > 62.5 µM | [12] > 62.5 µM | [13] > 62.5 µM | [14] > 62.5 µM | [15] > 62.5 µM | [16] > 62.5 µM | [17] > 62.5 µM | [18] > 62.5 µM | [19] > 62.5 µM | [20] > 62.5 µM | [21] > 62.5 µM | [22] > 62.5 µM | [23] 61 µM | [24] > 62.5 µM | [25] > 62.5 µM | [27] > 62.5 µM | [28] > 62.5 µM | [29] > 62.5 µM | [30] > 62.5 µM | [31] > 62.5 µM | [32] > 62.5 µM | [33] 32.9 µM | [34] > 62.5 µM | [35] > 62.5 µM | [36] > 62.5 µM | [37] > 62.5 µM | [38] > 62.5 µM | [39] > 62.5 µM | [40] > 62.5 µM | [41] > 62.5 µM | [42] > 62.5 µM | [43] > 62.5 µM | [44] > 62.5 µM | [45] > 62.5 µM | [46] > 62.5 µM | [47] > 62.5 µM | [48] > 62.5 µM | [49] > 62.5 µM | [50] > 62.5 µM | [51] > 62.5 µM | [52] > 62.5 µM | [53] 46 µM | [54] > 62.5 µM | [55] > 62.5 µM | [56] 13.9 µM | [57] > 62.5 µM | [58] > 62.5 µM | [59] > 62.5 µM
